Laboratory results from patent US11369593B2 (Texas Tech University System, priority 2017, dated 2022).

Assays:
[1] = test system: CLN3 knockdown mouse fibroblasts; test: Protective effect in CLN3 knock down mouse fibroblasts; assay type: cell-based; settings: FIG. 3B
From the text: (§1) FIGS. 3A and 3B show the neuroprotective effect of selected compounds in phenotypic cell lines. In FIG. 3A, the protective effect is shown in siRNA CLN3 knock down PC12 cells. In FIG. 3B the protective effect is shown in wild-type (WT) and CLN3 knock down mouse fibroblasts. Values are represented as mean±SD. *P<0.05, **p<0.01, ***p<0.001 compared to vehicle control, unpaired student t test.
(§2) Protective Effect in Phenotypic Cell Lines. […] The inventors screened a number of compounds in both neuron-like CLN3 siRNA knock down PC12 cells (FIG. 3A) and CLN3 knockdown mouse fibroblasts (FIG. 3B) as phenotypic models of JNCL. […] FIGS. 3A and 3B show the neuroprotective effect of selected compounds in phenotypic cell lines. In FIG. 3A, the protective effect is shown in siRNA CLN3 knock down PC12 cells. In FIG. 3B the protective effect is shown in wild-type (WT) and CLN3 knock down mouse fibroblasts. Values are represented as mean±SD. *P<0.05, **p<0.01, ***p<0.001 compared to vehicle control, unpaired student t test. […] Selected derivatives show greater protective effect than flupirtine in patient lympoblast cells in CLN1, CLN2, CLN3, CLN6 and CLN8 disease (FIGS. 4A to 4E). FIGS. 4A to 4E show the percentage of patient lymphoblast cells (%), using Trypan Blue dye with Flupirtine (20 μM, vehicle %1 EtOH), drug 3 (20 μM, vehicle %1 EtOH), drug 5 (50 μM, vehicle %4 DMSO) or drug 6 (20 μM, vehicle %4 DMSO) at 24 h. CLN1 (FIG. 4A), CLN2 (FIG. 4B), CLN3 (FIG. 4C), CLN6 (FIG. 4D), and CLN8 (FIG. 4E).

[2] = test system: PC12 cells; test: Serum starvation-induced apoptosis in PC12 cells, cell viability; assay type: cell-based; settings: Rattus norvegicus, PC-12, serum starvation-induced apoptosis, PC12 cells; for viability at 1 µM: 1 μM compound, vehicle 55.04 ± 8.99, read-out: % Viability 1 μM; for viability at 3 µM: 3 μM compound, read-out: % Viability 3 μM; for viability at 10 µM: 10 μM compound, read-out: % Viability 10 μM; for viability at 30 µM: 30 μM compound, read-out: % Viability 30 μM
[3] = test system: primary neurons; settings: cited from earlier work
[4] = test system: CLN3 siRNA knock down PC12 cells; test: Protective effect in siRNA CLN3 knock down PC12 cells; assay type: cell-based; settings: FIG. 3A
From the text: as §1, §2

[5] = test system: PC12 cells; test: ROS in PC12 cells, CellROX green / DAPI staining after H2O2; assay type: cell-based; settings: 400 μM H2O2 for 4 hours, FIG. 5A
Description: PC12 cells stained with CellROX and DAPI-blue nuclear stain. Greater intensity of green fluorescence indicates greater levels of ROS. Visualized through a microscope (40× magnification, bar=100 μM).
While flupirtine and retigabine are known antioxidants the inventors have shown (FIGS. 5A and 5B) that neuroprotective derivatives operate by a different mechanism of action. […] PC12 cells stained with CellROX and DAPI-blue nuclear stain. Greater intensity of green fluorescence indicates greater levels of ROS. Visualized through a microscope (40× magnification, bar=100 μM).

[6] = test system: PC12 cells; test: Etoposide-induced apoptosis in PC12 cells, cell viability; assay type: cell-based; settings: for viability at 0.1 µM / viability at 0.3 µM / viability at 1 µM / viability at 3 µM / viability at 10 µM / viability at 30 µM: Rattus norvegicus, PC-12, etoposide-induced apoptosis; for viability at 0.1 µM: 0.1 μM compound, vehicle 52.1 ± 7.32; for viability at 0.3 µM: 0.3 μM compound; for viability at 1 µM: 1 μM compound, read-out: % Viability 1 μM; for viability at 3 µM: 3 μM compound, read-out: % Viability 3 μM; for viability at 10 µM: 10 μM compound, read-out: % Viability 10 μM; for viability at 30 µM: 30 μM compound, read-out: % Viability 30 μM; for protective activity in WT PC12 etoposide assay: WT PC12 cells
[7] = test system: IMR-90-derived neurons; assay type: cell-based, human
From the text: The disclosed technology encompasses multiple derivatives of both flupirtine and retigabine. […] The inventors provide further insight into the derivatives from both original molecules. […] By way of explanation, and in no way a limitation of the present invention, the inventors have shown that the derivatives are active in two ways: they (1) upregulate expression of the anti-apoptotic protein Bcl-2 and ceramide pathway synthesis enzymes, and (2) activate autophagy.

Structure (SMILES)	protective activity [1]	viability at 1 µM [2] [%]	viability at 3 µM [2] [%]	viability at 10 µM [2] [%]	viability at 30 µM [2] [%]	concentration showing protective activity against Abeta 25-35 apoptotic cell death [3] [µg/mL]	protective activity [4]	amelioration of reactive oxygen species (ROS) [5]	viability at 0.1 µM ([6]; PC12 cells) [%]	viability at 0.3 µM ([6]; PC12 cells) [%]	viability at 1 µM ([6]; PC12 cells) [%]	viability at 3 µM ([6]; PC12 cells) [%]	viability at 10 µM ([6]; PC12 cells) [%]	viability at 30 µM ([6]; PC12 cells) [%]	activity in iPSC/IMR-90-derived neurons ([7]; 15 ug/mL etoposide for 36 hours, FIG. 2)	protective activity in WT PC12 etoposide assay [6]	concentration with neuroprotective activity (as low as) ([7]; human IMR-90-derived neurons) [µM]	concentration providing protection from etoposide-induced cell death ([6]; PC12 cells) [µM]
CCOC(=O)Nc1ccc(NCc2ccc(F)cc2)nc1N [NK-1-4, Ethyl (2-amino-6-((4-fluorobenzyl)amino)pyridin-3-yl)carbamate, reference compound]	protective activity	85.4 ± 14	82 ± 14.5	81.5 ± 13	89.9 ± 17.1	1	protective activity	do ameliorate ROS	67 ± 5.88	64.4 ± 9.35	73.2 ± 13.9	78.1 ± 12.9	76.9 ± 17.4	71.3 ± 18				
CCOC(=O)Nc1ccc(NCc2ccc(Cl)cc2)nc1N [NK-4-3, Ethyl (2-amino-6-((4-chlorobenzyl)amino)pyridin-3-yl)carbamate]		78 ± 9.61	79.3 ± 5.5	86.5 ± 11.5	86.6 ± 5.32						65.7 ± 16.2	64.3 ± 4.28	52.6 ± 10.3	41.5 ± 6.14	less active	less active than compounds NK-10-1 and NK-12-1		
C=CCOC(=O)Nc1ccc(NCc2ccc(F)cc2)nc1N [NK-12-1, Allyl 6-(4-fluorobenzylamino)-2-aminopyridin-3-ylcarbamate]	greater activity than flupirtine	108 ± 10.3	88.6 ± 8.26	82.2 ± 11.8	92.6 ± 12.3		greater activity than flupirtine	no amelioration of reactive oxygen species (ROS)			65.5 ± 8.19	86.8 ± 9.05	67.5 ± 22.6	45.2 ± 8.92		greater neuroprotective activity		
CCOC(=O)Nc1ccc(NCc2ccc(C(F)(F)F)cc2)nc1N [NK-40-3, Ethyl (2-amino-6-((4-(trifluoromethyl)benzyl)amino)pyridin-3-yl)carbamate]									85.8 ± 11.8	109 ± 17.3	82.7 ± 8.82	71.5 ± 4.99	97.3 ± 22.8	106 ± 15.8			0.1	0.1
